In patent US12582617B2, “Methods for treating cancer” (RADIUS PHARMACEUTICALS, INC., priority 2015, dated 2026):
Structures can show the parent of a compound that is named as a salt.

Assay: Phase 1 dose escalation study: safety, treatment related AEs
Type: in vivo
Procedure: The subjects were 40-75 years old with BMI of 18.0-30 kg/m^2. Subjects having evidence of clinically relevant pathology, increased risk of stroke or of history venous thromboembolic events, or use of concomitant medication less than 14 days prior to admission to clinical research center (paracetamol allowed up to 3 days prior) were excluded.
The subjects were treated with placebo or at least one dose p.o., q.d. after a light breakfast for 7 days at dose levels of 200 mg, 500 mg, 750 mg and 1000 mg, respectively.

Compound: CCNCCc1ccc(CN(CC)c2cc(OC)ccc2[C@@H]2CCc3cc(O)ccc3C2)cc1 [RAD1901, (6R)-6-(2-(N-(4-(2-(ethylamino)ethyl)benzyl)-N-ethylamino)-4-methoxyphenyl)-5,6,7,8-tetrahydronaphthalen-2-ol dihydrochloride]
- Abdominal discomfort (treatment related AE) (200 mg, Gr1): 3 n(%)
- Abdominal distension (treatment related AE) (200 mg, Gr1): 1 n(%)
- Abdominal pain (treatment related AE) (200 mg, Gr1): 2 n(%)
- Diarrhoea (treatment related AE) (200 mg, Gr1): 0 n(%)
- Dizziness (treatment related AE) (200 mg, Gr1): 1 n(%)
- Dyspepsia (treatment related AE) (200 mg, Gr1): 3 n(%)
- Dysphagia (treatment related AE) (200 mg, Gr1): 0 n(%)
- Flatulance (treatment related AE) (200 mg, Gr1): 2 n(%)
- Headache (treatment related AE) (200 mg, Gr1): 3 n(%)
- Hiccups (treatment related AE) (200 mg, Gr1): 1 n(%)
- Hot flush (treatment related AE) (200 mg, Gr1): 2 n(%)
- Myalgia (treatment related AE) (200 mg, Gr1): 2 n(%)
- Nausea (treatment related AE) (200 mg, Gr1): 5 n(%)
- Odynophagia (treatment related AE) (200 mg, Gr1): 2 n(%)
- Oesophageal pain (treatment related AE) (200 mg, Gr1): 0 n(%)
- Salivary hypersecretion (treatment related AE) (200 mg, Gr1): 2 n(%)
- Sensation of a foreign body (treatment related AE) (200 mg, Gr1): 2 n(%)
- Vomiting (treatment related AE) (200 mg, Gr1): 2 n(%)
- Abdominal discomfort (treatment related AE) (200 mg, Gr2): 0 n(%)
- Abdominal distension (treatment related AE) (200 mg, Gr2): 1 n(%)
- Abdominal pain (treatment related AE) (200 mg, Gr2): 2 n(%)
- Diarrhoea (treatment related AE) (200 mg, Gr2): 0 n(%)
- Dizziness (treatment related AE) (200 mg, Gr2): 0 n(%)
- Dyspepsia (treatment related AE) (200 mg, Gr2): 0 n(%)
- Dysphagia (treatment related AE) (200 mg, Gr2): 0 n(%)
- Flatulance (treatment related AE) (200 mg, Gr2): 0 n(%)
- Headache (treatment related AE) (200 mg, Gr2): 0 n(%)
- Hiccups (treatment related AE) (200 mg, Gr2): 0 n(%)
- Hot flush (treatment related AE) (200 mg, Gr2): 0 n(%)
- Myalgia (treatment related AE) (200 mg, Gr2): 1 n(%)
- Nausea (treatment related AE) (200 mg, Gr2): 0 n(%)
- Odynophagia (treatment related AE) (200 mg, Gr2): 0 n(%)
- Oesophageal pain (treatment related AE) (200 mg, Gr2): 2 n(%)
- Salivary hypersecretion (treatment related AE) (200 mg, Gr2): 0 n(%)
- Sensation of a foreign body (treatment related AE) (200 mg, Gr2): 0 n(%)
- Vomiting (treatment related AE) (200 mg, Gr2): 0 n(%)
- Abdominal discomfort (treatment related AE) (200 mg, Gr3): 0 n(%)
- Abdominal distension (treatment related AE) (200 mg, Gr3): 0 n(%)
- Abdominal pain (treatment related AE) (200 mg, Gr3): 0 n(%)
- Diarrhoea (treatment related AE) (200 mg, Gr3): 0 n(%)
- Dizziness (treatment related AE) (200 mg, Gr3): 0 n(%)
- Dyspepsia (treatment related AE) (200 mg, Gr3): 0 n(%)
- Dysphagia (treatment related AE) (200 mg, Gr3): 0 n(%)
- Flatulance (treatment related AE) (200 mg, Gr3): 0 n(%)
- Headache (treatment related AE) (200 mg, Gr3): 0 n(%)
- Hiccups (treatment related AE) (200 mg, Gr3): 0 n(%)
- Hot flush (treatment related AE) (200 mg, Gr3): 0 n(%)
- Myalgia (treatment related AE) (200 mg, Gr3): 0 n(%)
- Nausea (treatment related AE) (200 mg, Gr3): 0 n(%)
- Odynophagia (treatment related AE) (200 mg, Gr3): 0 n(%)
- Oesophageal pain (treatment related AE) (200 mg, Gr3): 0 n(%)
- Salivary hypersecretion (treatment related AE) (200 mg, Gr3): 0 n(%)
- Sensation of a foreign body (treatment related AE) (200 mg, Gr3): 0 n(%)
- Vomiting (treatment related AE) (200 mg, Gr3): 0 n(%)
- Abdominal discomfort (treatment related AE) (500 mg, Gr1): 0 n(%)
- Abdominal distension (treatment related AE) (500 mg, Gr1): 1 (7) n(%)
- Abdominal pain (treatment related AE) (500 mg, Gr1): 3 (21) n(%)
- Diarrhoea (treatment related AE) (500 mg, Gr1): 3 (21) n(%)
- Dizziness (treatment related AE) (500 mg, Gr1): 2 (14) n(%)
- Dyspepsia (treatment related AE) (500 mg, Gr1): 5 (36) n(%)
- Dysphagia (treatment related AE) (500 mg, Gr1): 1 (7) n(%)
- Flatulance (treatment related AE) (500 mg, Gr1): 2 (14) n(%)
- Headache (treatment related AE) (500 mg, Gr1): 1 (7) n(%)
- Hiccups (treatment related AE) (500 mg, Gr1): 4 (29) n(%)
- Hot flush (treatment related AE) (500 mg, Gr1): 6 (43) n(%)
- Myalgia (treatment related AE) (500 mg, Gr1): 0 n(%)
- Nausea (treatment related AE) (500 mg, Gr1): 3 (21) n(%)
- Odynophagia (treatment related AE) (500 mg, Gr1): 1 (7) n(%)
- Oesophageal pain (treatment related AE) (500 mg, Gr1): 1 (7) n(%)
- Salivary hypersecretion (treatment related AE) (500 mg, Gr1): 2 (14) n(%)
- Sensation of a foreign body (treatment related AE) (500 mg, Gr1): 1 (7) n(%)
- Vomiting (treatment related AE) (500 mg, Gr1): 1 (7) n(%)
- Abdominal discomfort (treatment related AE) (500 mg, Gr2): 0 n(%)
- Abdominal distension (treatment related AE) (500 mg, Gr2): 0 n(%)
- Abdominal pain (treatment related AE) (500 mg, Gr2): 0 n(%)
- Diarrhoea (treatment related AE) (500 mg, Gr2): 0 n(%)
- Dizziness (treatment related AE) (500 mg, Gr2): 0 n(%)
- Dyspepsia (treatment related AE) (500 mg, Gr2): 2 n(%)
- Dysphagia (treatment related AE) (500 mg, Gr2): 2 n(%)
- Flatulance (treatment related AE) (500 mg, Gr2): 0 n(%)
- Headache (treatment related AE) (500 mg, Gr2): 1 n(%)
- Hiccups (treatment related AE) (500 mg, Gr2): 0 n(%)
- Hot flush (treatment related AE) (500 mg, Gr2): 0 n(%)
- Myalgia (treatment related AE) (500 mg, Gr2): 1 n(%)
- Nausea (treatment related AE) (500 mg, Gr2): 2 n(%)
- Odynophagia (treatment related AE) (500 mg, Gr2): 1 n(%)
- Oesophageal pain (treatment related AE) (500 mg, Gr2): 3 n(%)
- Salivary hypersecretion (treatment related AE) (500 mg, Gr2): 0 n(%)
- Sensation of a foreign body (treatment related AE) (500 mg, Gr2): 0 n(%)
- Vomiting (treatment related AE) (500 mg, Gr2): 5 n(%)
- Abdominal discomfort (treatment related AE) (500 mg, Gr3): 0 n(%)
- Abdominal distension (treatment related AE) (500 mg, Gr3): 0 n(%)
- Abdominal pain (treatment related AE) (500 mg, Gr3): 0 n(%)
- Diarrhoea (treatment related AE) (500 mg, Gr3): 0 n(%)
- Dizziness (treatment related AE) (500 mg, Gr3): 0 n(%)
- Dyspepsia (treatment related AE) (500 mg, Gr3): 0 n(%)
- Dysphagia (treatment related AE) (500 mg, Gr3): 0 n(%)
- Flatulance (treatment related AE) (500 mg, Gr3): 0 n(%)
- Headache (treatment related AE) (500 mg, Gr3): 0 n(%)
- Hiccups (treatment related AE) (500 mg, Gr3): 0 n(%)
- Hot flush (treatment related AE) (500 mg, Gr3): 0 n(%)
- Myalgia (treatment related AE) (500 mg, Gr3): 0 n(%)
- Nausea (treatment related AE) (500 mg, Gr3): 0 n(%)
- Odynophagia (treatment related AE) (500 mg, Gr3): 0 n(%)
- Oesophageal pain (treatment related AE) (500 mg, Gr3): 0 n(%)
- Salivary hypersecretion (treatment related AE) (500 mg, Gr3): 0 n(%)
- Sensation of a foreign body (treatment related AE) (500 mg, Gr3): 0 n(%)
- Vomiting (treatment related AE) (500 mg, Gr3): 1 n(%)
- Abdominal discomfort (treatment related AE) (750 mg, Gr1): 1 (13) n(%)
- Abdominal distension (treatment related AE) (750 mg, Gr1): 1 (13) n(%)
- Abdominal pain (treatment related AE) (750 mg, Gr1): 1 (13) n(%)
- Diarrhoea (treatment related AE) (750 mg, Gr1): 0 n(%)
- Dizziness (treatment related AE) (750 mg, Gr1): 1 (13) n(%)
- Dyspepsia (treatment related AE) (750 mg, Gr1): 4 (50) n(%)
- Dysphagia (treatment related AE) (750 mg, Gr1): 3 (38) n(%)
- Flatulance (treatment related AE) (750 mg, Gr1): 1 (13) n(%)
- Headache (treatment related AE) (750 mg, Gr1): 3 (38) n(%)
- Hiccups (treatment related AE) (750 mg, Gr1): 2 (25) n(%)
- Hot flush (treatment related AE) (750 mg, Gr1): 2 (25) n(%)
- Myalgia (treatment related AE) (750 mg, Gr1): 1 (13) n(%)
- Nausea (treatment related AE) (750 mg, Gr1): 2 (25) n(%)
- Odynophagia (treatment related AE) (750 mg, Gr1): 0 n(%)
- Oesophageal pain (treatment related AE) (750 mg, Gr1): 1 (13) n(%)
- Salivary hypersecretion (treatment related AE) (750 mg, Gr1): 2 (25) n(%)
- Sensation of a foreign body (treatment related AE) (750 mg, Gr1): 0 n(%)
- Vomiting (treatment related AE) (750 mg, Gr1): 0 n(%)
- Abdominal discomfort (treatment related AE) (750 mg, Gr2): 1 n(%)
- Abdominal distension (treatment related AE) (750 mg, Gr2): 0 n(%)
- Abdominal pain (treatment related AE) (750 mg, Gr2): 0 n(%)
- Diarrhoea (treatment related AE) (750 mg, Gr2): 0 n(%)
- Dizziness (treatment related AE) (750 mg, Gr2): 0 n(%)
- Dyspepsia (treatment related AE) (750 mg, Gr2): 0 n(%)
- Dysphagia (treatment related AE) (750 mg, Gr2): 1 n(%)
- Flatulance (treatment related AE) (750 mg, Gr2): 0 n(%)
- Headache (treatment related AE) (750 mg, Gr2): 0 n(%)
- Hiccups (treatment related AE) (750 mg, Gr2): 0 n(%)
- Hot flush (treatment related AE) (750 mg, Gr2): 0 n(%)
- Myalgia (treatment related AE) (750 mg, Gr2): 0 n(%)
- Nausea (treatment related AE) (750 mg, Gr2): 1 n(%)
- Odynophagia (treatment related AE) (750 mg, Gr2): 0 n(%)
- Oesophageal pain (treatment related AE) (750 mg, Gr2): 0 n(%)
- Salivary hypersecretion (treatment related AE) (750 mg, Gr2): 0 n(%)
- Sensation of a foreign body (treatment related AE) (750 mg, Gr2): 0 n(%)
- Vomiting (treatment related AE) (750 mg, Gr2): 2 n(%)
- Abdominal discomfort (treatment related AE) (750 mg, Gr3): 0 n(%)
